Experimental findings from patent US20060276372A1, “Carotenoids, carotenoid analogs, or carotenoid derivatives for the treatment of proliferative disorders” (priority 2005, published 2006) are described below.

In data set [1] the test system is superoxide anion. Put plainly: Direct superoxide anion scavenging by EPR spectroscopy (DEPMPO spin trap), PMA-stimulated isolated human PMNs. In kind it is cell-based. Here is the method:
Leukocyte Isolation and Preparation. Human polymorphonuclear leukocytes (PMNs) were isolated from freshly sampled venous blood of a single volunteer by Percoll density gradient centrifugation as described previously. Briefly, each 10 mL of whole blood was mixed with 0.8 mL of 0.1 M EDTA and 25 mL of saline. The diluted blood was then layered over 9 mL of Percoll at a specific density of 1.080 g/mL. After centrifugation at 400×g for 20 min at 20° C., the plasma, mononuclear cell, and Percoll layers were removed. Erythrocytes were subsequently lysed by addition of 18 mL of ice-cold water for 30 s, followed by 2 mL of 10×PIPES buffer (25 mM PIPES, 110 mM NaCl, and 5 mM KCl, titrated to pH 7.4 with NaOH). Cells were then pelleted at 4° C., the supernatant was decanted, and the procedure was repeated. After the second hypotonic cell lysis, cells were washed twice with PAG buffer [PIPES buffer containing 0.003% human serum albumin (HSA) and 0.1% glucose]. Afterward, PMNs were counted by light microscopy on a hemocytometer. The isolation yielded PMNs with a purity of >95%. The final pellet was then suspended in PAG-CM buffer (PAG buffer with 1 mM CaCl2 and 1 mM MgCl2).
EPR Measurements. All EPR measurements were performed using a Bruker ER 300 EPR spectrometer operating at X-band with a TM110 cavity as previously described. The microwave frequency was measured with a Model 575 microwave counter (EIP Microwave, Inc., San Jose, Calif.). To measure superoxide anion (O2) generation from phorbol-ester (PMA)-stimulated PMNs, EPR spin-trapping studies were performed using the spin trap DEPMPO (Oxis, Portland, Oreg.) at 10 mM. 1×10^6 PMNs were stimulated with PMA (1 ng/mL) and loaded into capillary tubes for EPR measurements. To determine the radical scavenging ability of 3 and 9 in aqueous and ethanolic formulations, PMNs were pre-incubated for 5 minutes with test compound, followed by PMA stimulation.
Instrument settings used in the spin-trapping experiments were as follows: modulation amplitude, 0.32 G; time constant, 0.16 s; scan time, 60 s; modulation frequency, 100 kHz; microwave power, 20 milliwatts; and microwave frequency, 9.76 GHz. The samples were placed in a quartz EPR flat cell, and spectra were recorded. The component signals in the spectra were identified and quantified as reported previously.

Data set [2] has as its system 10T1/2 cells. Put plainly: Gap junctional communication, scrape-loading dye transfer assay. The class given is cell-based, Mouse. The conditions noted are these: 7 days. Here is the method:
Gap junctional communication assay. Junctional permeability was assayed by the scrape-loading dye transfer assay essentially as described in El-Fouly et al., 1987, which is incorporated herein by reference. Briefly, confluent cultures of 10T1/2 cells grown in 60 mm dishes were treated with the indicated compounds for 7 days. The treated cells were washed with Ca^+2-free phosphate-buffered saline (PBS). 1.5 ml of Lucifer Yellow CH (Sigma, St. Louis, Mo.) 0.2% in PBS was then added, and linear cuts were made on the monolayer using a surgical scalpel. The cultures were incubated for 2 minutes at 37° C. then rinsed thoroughly with PBS. The cultures were then fixed with 2 ml of 5% formaldehyde in PBS. Images were digitally quantitated by intensity thresholding using the SigmaScan software program (Jandel Scientific, San Rafael, Calif.).

Data set [3] has as its system CX43. Put plainly: CX43 plaques by indirect immunofluorescence in 10T1/2 cells. The class given is cell-based, Mouse. The settings on record: 4 days; for CX43 immunoreactive plaques / gap junction assembly: 10^−8 M. As to the method:
Analysis of CX43 protein by indirect immunofluorescence. Expression and assembly of CX43 into plaques was assessed by immunofluorescence staining essentially as described in Rogers et al, 1990, which is incorporated herein by reference. Briefly, confluent cultures of 10T1/2 cells were grown on Permanox plastic 4-chamber slides (Nalge Nunc International, Naperville, Ill.) and treated for 4 days as described above. Cells were fixed with −20° C. methanol overnight, washed in buffer, blocked in 1% bovine serum albumin (Sigma, St. Louis, Mo.) in PBS, incubated with the rabbit anti-CX43 antibody, and visualized with Alexa568 conjugated anti-rabbit secondary antibody (Molecular Probes, Eugene, Oreg.). Images were acquired with a Zeiss Axioplan microscope and a Roper Scientific cooled CCD camera.

The nature of data set [4]: Determination of aqueous solubility/dispersibility. The class given is physicochemical. As to the method: Determination of aqueous solubility/dispersibility. 30.13 mg of 3 was added to 1 mL of USP-purified water. The sample was rotated for 2 hours, then centrifuged for 5 minutes. After centrifuging, solid was visible in the bottom of the tube. A 125-μL aliquot of the solution was then diluted to 25 mL. The sample was analyzed by UV/Vis spectroscopy at 436 nm, and the absorbance was compared to a standard curve compiled from 4 standards of known concentration. The concentration of the original supernatant was calculated to be 2.85 mg/mL and the absorptivity was 36.94 AU*mL/cm*mg. Slight error may have been introduced by the small size of the original aliquot.
Next, 30.80 mg of 9 was added to 1 mL of USP-purified water. The sample was rotated for 2 hours, then centrifuged for 5 minutes. After centrifuging, solid was visible in the bottom of the tube. A 125-μL aliquot of the solution was then diluted to 25 mL. The sample was analyzed by UViis spectroscopy at 411 nm, and the absorbance was compared to a standard curve compiled from 4 standards of known concentration. […] Slight error may have been introduced by the small size of the original aliquot.
Determination of aqueous solubility/dipsersibility of pAST. 23.70 mg of tetrasodium diphosphate astaxanthin was added to 1 ml of USP purified water. The mixture was stirred for 2 hours, and centrifuged for 5 minutes. The solution was diluted in water and analyzed by UV/vis spectroscopy at 480 nm and absorbance was compared to a standard curve compiled from 4 standards of known concentration.

In data set [5] the test system is CX43 protein. In words: CX43 protein expression in 10T1/2 cells by Western blotting (Example 1). The conditions noted are these: 4 days. The class given is cell-based, Mouse. As to the method: Cell lines and culture conditions. Mouse embryonic fibroblast 10T1/2 cells were cultured in Eagle's basal medium with Earle's salts supplemented with 4% fetal calf serum (Atlanta Biologicals, Norcross, Ga.), 25 μg/ml gentamicin sulfate (Sigma, St. Louis, Mo.), and passaged by trypsin/EDTA (Gibco Invitrogen, Carlsbad, Calif.) and maintained at 37° C. in a 5% CO2 atmosphere. The cells were allowed to grow until a monolayer was formed. The confluent cells were treated 7 days after seeding, unless otherwise indicated. dAST was prepared in a formulation of 20% EtOH and sterile water (0.2% final EtOH ) to minimize supramolecular aggregation, and the final concentration of EtOH in culture medium was 0.2%. CTX was dissolved in THF and added to media. TTNPB was dissolved in acetone (Sigma, St. Louis, Mo.) and cultures received a final acetone concentration of 0.1%.
Analysis of CX43 protein expression. Expression of CX43 protein in 10T1/2 cells was assessed by Western blotting. 10T1/2 cell monolayers were treated with the indicated carotenoid derivatives or with retinoids (as a positive control for the modulation of CX43 expression) 7 days after seeding in 100 mm dishes (Fisher Scientific, Pittsburgh, Pa.). Fours days after the drug was added to the cells, the cells were harvested, total cellular protein was isolated and the total protein concentration thereof was determined using a commercially available Protein Assay Reagent kit (Pierce Chemical Co., Rockford, Ill.). 40 μg of total cellular protein was resolved on an SDS-PAGE gel, transferred to a nitrocellulose membrane, and analyzed by Western blotting using the NuPage Western blotting kit (Invitrogen, Carlsbad, Calif.). CX43 was detected using a rabbit polyclonal antibody (Zymed, San Francisco, Calif.) raised against a synthetic polypeptide corresponding to the C-terminal domain common to mouse, human and rat CX43. Equal protein loafing was verified by immunoblotting for GAPDH, the expression of which is unaffected by treatment with retinoids or carotenoids, using a rabbit polyclonal GAPDH antibody was also used (Zymed, San Francisco, Calif.). CX43 and GAPDH immunoreactive bands were visualized by chemiluminescence using an anti-rabbit HRP-conjugated secondary antibody (Pierce Chemical Co., Rockford, Ill.). Images were obtained by exposure to X-ray film as previously described and scanned for digital analysis on the Fluoro-S Imager (Bio-Rad, Richmond, Calif.).

Data set [6] relates to 10T1/2 cells. The class given is cell-based, Mouse. The conditions noted are these: for % Inhibition of MCA-induced transformation: 4 week period; for Foci/dish (mean Type II + Type III foci, 24 dishes): 4 week period after MCA. As to the method: Inhibition of MCA-induced neoplastic transformation in 10T1/2 cells. Cells were initiated with methylcholanthrene (MCA) […] (Sigma, St. Louis, Mo.) in acetone for 24 hours. Potential inhibitors of neoplastic transformation were added 7 days after removal of carcinogen as indicated and were renewed weekly by adding fresh medium supplemented with the appropriate drug for four weeks after removal of the carcinogen. The cultures were fixed and stained as described above. A total of 24 dishes of cells were used per treatment group. Type II and III foci were identified and then quantitated as described in Bertram et al., 1990, which is incorporated herein by reference.
Statistical analysis. Transformation data was analyzed by one-tailed, two-sample t-tests that incorporated unequal variances. The scrape-loading data was analyzed by paired t-tests.

Setting [7] is: 0.1 mM in 40% EtOH, sodium salt.

Like-named read-outs stand apart in the source and are kept apart here.

In the case of “3,3′-Diphosphoryloxy-β,ε-carotene sodium salt [Lutein Diphosphate Sodium Salt]”, the “Mean (% inhibition) of superoxide anion signal” value (“Mean (% inhibition)” for short) in data set [1] (0.1 mM in 40% EtOH, listed as disodium diphosphate derivative of natural source lutein, sodium salt) is recorded as 18%; in data set [1] (setting [7]), 18.0%; in data set [1] (0.1 mM in water, listed as disodium diphosphate derivative of natural source lutein, sodium salt), 0%; in data set [1] (1.0 mM in water), 9.3%; in data set [1] (3.0 mM in water), 72.3%; in data set [1] (5.0 mM in water, listed as disodium diphosphate derivative of natural source lutein, sodium salt), “more than 90%”. Also, the “Mean (% inhibition)” value in data set [1] (5.0 mM in water, sodium salt) is reported as 91.0%.
`CC1=C(/C=C/C(C)=C/C=C/C(C)=C/C=C/C=C(C)/C=C/C=C(C)/C=C/C2=C(C)C(=O)[C@@H](O)CC2(C)C)C(C)(C)C[C@H](O)C1=O` [AST, astaxanthin, reference compound]: the GJIC dye transfer result is “below that observed in untreated control cultures” in data set [2] (10^−6 M) and “roughly equivalent to that achieved in cultures treated with pAST” in data set [2] (10^−7 M). In data set [3] (10^−6 M), the “CX43 immunoreactive plaques at regions of cell/cell apposition” value is on record as “few immunoreactive plaques”. The “CX43 immunoreactive plaques / gap junction assembly” value in data set [3] is listed as “comparable to untreated cultures”. The water dispersibility result in data set [4] is reported as “insoluble in water”. Besides, the figures for the “CX43 protein induction versus solvent-treated controls” value in data set [5] (10^−5 M), in data set [5] (10^−6 M) and in data set [5] (10^−7 M) were “no change”, “No change” and “No change”, respectively. Besides, the neoplastic transformation result in data set [6] (10^−5 M for 4 weeks) is listed as “strongly inhibited”. The “% Inhibition of MCA-induced transformation” value amounted to 41% in data set [6] (10^−6 M), 39% in data set [6] (10^−7 M) and 41% in data set [6] (10^−8 M). In addition, the entries for the “Foci/dish (mean Type II + Type III foci, 24 dishes)” value in data set [6] (10^−6 M), in data set [6] (10^−7 M) and in data set [6] (10^−8 M) were 0.96 foci/dish, 1.00 foci/dish and 0.96 foci/dish, respectively. In data set [6] (all concentrations tested), this compound displayed a foci/dish of 0.98 foci/dish.
On to `CC1=C(/C=C/C(C)=C/C=C/C(C)=C/C=C/C=C(C)/C=C/C=C(C)/C=C/C2=C(C)C(=O)CCC2(C)C)C(C)(C)CCC1=O` [CTX, Canthaxanthin], for which, in data set [2] (10^−5 M), the “increase of dye transfer” value turned out to be 4 fold. In addition, in data set [3] (10^−5 M), the CX43 immunoreactive plaques result is on record as “roughly equivalent to that achieved in cells treated with pAST at 10^−6 M”. Moreover, the “CX43 protein induction versus solvent-treated controls” value in data set [5] (10^−5 M) is on record as “≈ 7 fold”.
On to `C/C(=C\c1ccc(C(=O)O)cc1)c1ccc2c(c1)C(C)(C)CCC2(C)C` [TTNPB, tetrahydrotetramethylnaphalenylpropenyl benzoic acid], for which, in data set [2] (10^−8 M), the “increase of dye transfer” value is listed as 6 fold. Moreover, the “CX43 immunoreactive plaques / gap junction assembly” value in data set [3] is “extensive CX43 immunoreactive plaques”. In data set [5] (10^−8 M), the “CX43 protein induction versus solvent-treated controls” value is “about 13 fold”.
Turning to “β,ε-carotenyl 3,3′-disuccinate sodium salt [Lutein Disuccinate Sodium Salt]”, in data set [4], the aqueous solubility/dispersibility turned out to be 2850 µg/mL. The “Mean (% inhibition)” value is listed as “did not significantly increase scavenging over that provided by the EtOH vehicle alone” in data set [1] (0.1 mM in 40% EtOH, listed as disodium disuccinate derivative of natural source lutein, sodium salt); 5.0% in data set [1] (setting [7]); 0% in data set [1] (0.1 mM in water); 13.0% in data set [1] (1.0 mM in water); 61.7% in data set [1] (3.0 mM in water); roughly 75% in data set [1] (5.0 mM in water, listed as disodium disuccinate derivative of natural source lutein, sodium salt). For the same compound, the “Mean (% inhibition)” value worked out at 75% in data set [1] (5.0 mM in water, listed as disuccinate lutein sodium salt, sodium salt) and 74.7% in data set [1] (5.0 mM in water, sodium salt).
